Ten molecules from ChEMBL document CHEMBL1201862, “PubChem BioAssay data set” (2004) can be followed below.

Holding throughout (assay): inhibition of tumour cell growth, NCI panel, 48 h
Assay [1] concerns A498.
Assay [2] has as its system BT-549.
Assay [3] relates to COLO 205.
Assay [4] concerns DU-145.
For assay [5], the system named is EKVX.
The subject of assay [6] is HCC 2998.
Assay [7] concerns HCT-116.
Assay [8] relates to HCT-15.
Assay [9] relates to HT-29.
The subject of assay [10] is Hs-578T.
Assay [11] has as its system MCF7.
For assay [12], the system named is MDA-MB-231.
Assay [13] has as its system NCI-H23.
Assay [14] relates to NCI/ADR-RES.
Assay [15] deals with PC-3.
Assay [16] concerns SK-MEL-28.
For assay [17], the system named is SK-OV-3.
Assay [18] has as its system SN12C.
Assay [19] concerns SNB-19.
Assay [20] has as its system SR.

Structures are written as SMILES.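 Briefly, cells in 96-well plates were exposed to five compound concentrations for 48 h, and endpoints were estimated by linear interpolation. GI50 is the concentration that inhibits growth by half.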 The source made the active and inactive calls. No stated cut-off is given here; in the data, active = GI50 up to about 1.1 µM and inactive = higher.

Take `O=C(c1ccccc1)c1sc2c(=O)c(C(=O)c3ccccc3)c(C(=O)c3ccccc3)sc2c(=O)c1C(=O)c1ccccc1`: the GI50 in assay [1] is > 100 µM (inactive); in [2], 37.7 µM (inactive); in [3] it was > 100 µM (inactive); in assay [4] it was > 100 µM (inactive); in assay [5], > 100 µM (inactive); in assay [6] it was 19.5 µM (inactive). In addition, the GI50 was 44.1 µM (inactive) in [7]; 35 µM in assay [8]; 33.3 µM (inactive) in assay [9]; 77.6 µM (inactive) in [10]; 23.7 µM (inactive) in [11]; > 100 µM (inactive) in assay [12]. Besides, the GI50 in assay [13] was 42.3 µM (inactive); in assay [14], 24.5 µM (inactive); in assay [15], > 100 µM (inactive); in [16], > 100 µM (inactive); in assay [17], 37.8 µM (inactive); in assay [18], 54.8 µM (inactive). Further, the results for the GI50 in [19] and in [20] were 55.3 µM (inactive) and 4.88 µM (inactive), respectively.

On to `O=C1OC(=O)C(=C\c2ccc3c(c2)OCO3)/C1=C/c1ccc2c(c1)OCO2`, for which the GI50 in [1], in assay [2], in assay [3], in [4], in [5] and in assay [6] was > 100 µM (inactive) throughout. The GI50 was > 100 µM (inactive) in assay [7]; over 100 µM in assay [8]; > 100 µM (inactive) in [9]; > 88.5 µM (inactive) in [10]; > 100 µM (inactive) in [11]; > 100 µM (inactive) in [12]. The GI50 in assay [13] was > 80.9 µM (inactive); in [14] it was > 100 µM (inactive); in assay [15] it was > 100 µM (inactive); in assay [16], > 100 µM (inactive); in assay [17] it was > 100 µM (inactive); in assay [18] it was > 100 µM (inactive). The GI50 in [19] was > 100 µM (inactive); in assay [20] it was > 52.8 µM (inactive).

Consider `CN1CC2=C(N=C(S)NC2c2ccccc2)/C(=C/c2ccccc2)C1` (stereo not given), for which the GI50 in assay [1] is 89.7 µM (inactive); in assay [2], > 100 µM (inactive); in [3], 34.8 µM (inactive); in assay [4], > 100 µM (inactive); in assay [5], 75.2 µM (inactive); in assay [6], 29.3 µM (inactive). Also, the GI50 in assay [7] was 13 µM (inactive); in assay [8], 33 µM; in assay [9], 27 µM (inactive); in assay [10], 40.6 µM (inactive); in assay [11] it was 40.4 µM (inactive); in assay [12], > 10 µM (inactive). In addition, the GI50 in assay [13] was 56.2 µM (inactive); in assay [14], > 100 µM (inactive); in [15], 15 µM (inactive); in assay [16], 27.6 µM (inactive); in assay [17], 22.2 µM (inactive); in assay [18] it was 51.8 µM (inactive). The GI50 was > 100 µM (inactive) in assay [19] and 30.4 µM (inactive) in assay [20].

`O=C(Nn1cc(F)c(=O)[nH]c1=O)C12CC3CC(CC(C3)C1)C2`: the GI50 in assay [1] was 7.24 µM (inactive); in assay [2] it was 17.5 µM (inactive); in assay [3], 9.75 µM (inactive); in assay [4] it was 8.3 µM (inactive); in assay [5], 24 µM (inactive); in assay [6], 0.646 µM (active). Further, the GI50 is 5.77 µM (inactive) in [7]; 6.56 µM in [8]; 8.17 µM (inactive) in [9]; 25.4 µM (inactive) in [10]; 5.22 µM (inactive) in assay [11]; 12.7 µM (inactive) in assay [12]. Besides, the GI50 is 7.73 µM (inactive) in [13]; 24.2 µM (inactive) in assay [14]; 10.7 µM (inactive) in assay [15]; 12.9 µM (inactive) in assay [16]; 18.4 µM (inactive) in [17]; 11.5 µM (inactive) in assay [18]. The GI50 is 28.6 µM (inactive) in [19] and 4.05 µM (inactive) in assay [20].

As for `Cc1ccc(S(=O)(=O)N/N=C2/CCCOC2)cc1`, the GI50 in assay [1], in [2], in [3], in assay [4], in assay [5] and in assay [6] was > 100 µM (inactive) throughout. Besides, the GI50 is > 100 µM (inactive) in [7]; over 100 µM in assay [8]; > 100 µM (inactive) in assay [9]; > 100 µM (inactive) in assay [10]; > 100 µM (inactive) in assay [11]; > 100 µM (inactive) in assay [12]. For the same molecule, the GI50 in [13], in assay [14], in [15], in assay [16], in assay [17] and in [18] was > 100 µM (inactive) throughout. The GI50 in [19] and in [20] was > 100 µM (inactive) in each case.

Turning to `COP(=N[Si](C)(C)C)(OC)OC`, the GI50 in assay [1], in assay [2], in assay [3], in assay [4], in [5] and in assay [6] was > 100 µM (inactive) throughout. Moreover, the GI50 is > 100 µM (inactive) in [7]; over 100 µM in [8]; > 100 µM (inactive) in [9]; > 100 µM (inactive) in [10]; > 100 µM (inactive) in assay [11]; > 100 µM (inactive) in [12]. Also, the GI50 in assay [13], in assay [14], in [15], in assay [16], in assay [17] and in assay [18] was > 100 µM (inactive) each time. In addition, the GI50 in assay [19] and in assay [20] was > 100 µM (inactive) throughout.

Turning to `CN(C)CC1CCC/C(=C\c2ccc(Cl)cc2)C1=O` (stereo not given), the GI50 in assay [1] was 17.3 µM (inactive); in assay [2], 1.73 µM (inactive); in assay [3], 2.12 µM (inactive); in assay [4], 15.5 µM (inactive); in [5] it was 11.2 µM (inactive); in assay [6], 7.38 µM (inactive). Also, the GI50 was 1.8 µM (inactive) in [7]; 2.05 µM in assay [8]; 9.27 µM (inactive) in assay [9]; 2.92 µM (inactive) in assay [10]; 1.24 µM (inactive) in assay [11]; 3.05 µM (inactive) in assay [12]. In addition, the GI50 was 8.02 µM (inactive) in assay [13]; 3.62 µM (inactive) in [14]; 2.67 µM (inactive) in [15]; 3.46 µM (inactive) in [16]; 10.9 µM (inactive) in [17]; 3.33 µM (inactive) in [18]. Moreover, the GI50 in assay [19] is 11.8 µM (inactive); in assay [20] it was 1.33 µM (inactive).

For the molecule `CCOC(=O)[C@@H]1ON2OC(OC3CCCC3(c3ccccc3)c3ccccc3)C(OC(C)=O)[C@H]3OC(=O)[C@@H]1C32` (stereo not given in full), the GI50 in assay [1] is > 100 µM (inactive); in assay [2] it was > 100 µM (inactive); in assay [3], > 100 µM (inactive); in assay [4] it was > 100 µM (inactive); in assay [5], 89.7 µM (inactive); in assay [6] it was 35.1 µM (inactive). Also, the GI50 in [7] was 29.6 µM (inactive); in [8], over 100 µM; in assay [9], 62.1 µM (inactive); in assay [10] it was > 100 µM (inactive); in [11] it was 21.3 µM (inactive); in assay [12] it was > 100 µM (inactive). Also, the GI50 in [13], in assay [14], in [15], in assay [16], in [17] and in [18] was > 100 µM (inactive) each time. For the same molecule, the GI50 in assay [19] and in [20] was > 100 µM (inactive) each time.

`CC1=NN(c2nc(N)nc(/C(C#N)=C\c3ccc([N+](=O)[O-])s3)n2)C(C)(C)C1`: the GI50 was 7.78 µM (inactive) in [1]; 0.701 µM (active) in [2]; 0.339 µM (active) in assay [3]; 0.24 µM (active) in assay [4]; 0.817 µM (active) in [5]; 1.41 µM (inactive) in [6]. Moreover, the GI50 in [7] was 0.244 µM (active); in assay [8], 0.108 µM; in assay [9], 0.265 µM (active); in assay [10] it was 0.783 µM (active); in assay [11], 0.142 µM (active); in assay [12], 0.22 µM (active). Besides, the GI50 is 0.76 µM (active) in assay [13]; 1.18 µM (inactive) in assay [14]; 0.165 µM (active) in assay [15]; 0.383 µM (active) in [16]; 8.99 µM (inactive) in assay [17]; 0.363 µM (active) in assay [18]. The values for the GI50 in [19] and in assay [20] were 1.66 µM (inactive) and 0.018 µM (active), respectively.

`CC(=O)O[C@H]1C[C@]2(C)C(CCC3O[C@@]32C)[C@@]2(CC(c3ccoc3)OC2O)[C@@H]1C` (stereo not given in full): the GI50 in assay [1] was > 100 µM (inactive); in assay [2], 40 µM (inactive); in assay [3], > 100 µM (inactive); in [4], > 100 µM (inactive); in assay [5], > 100 µM (inactive); in assay [6], > 100 µM (inactive). Besides, the GI50 in [7] is 60.8 µM (inactive); in [8], 37.8 µM; in assay [9], 75.9 µM (inactive); in assay [10] it was > 100 µM (inactive); in assay [11], 44.3 µM (inactive); in assay [12], > 100 µM (inactive). Further, the GI50 in assay [13] is 72.3 µM (inactive); in [14], > 100 µM (inactive); in assay [15], 50.1 µM (inactive); in assay [16], > 100 µM (inactive); in assay [17] it was > 100 µM (inactive); in assay [18], > 100 µM (inactive). Besides, the GI50 in assay [19] is > 100 µM (inactive); in [20], 39.2 µM (inactive).
